Measurements taken from patent publication US20250312258A1, “2,3-PYRROLIDINEDIONE CONJUGATES AND METHODS OF USING THEREOF” (North Carolina State University, priority 2022, published 2025).
Like-named read-outs stand apart in the source and are kept apart here.

Key:
Type in all cases: cell-based
[1] = tested on: MSSA; assay: MIC against MSSA strain panel; details: Staphylococcus aureus, the 4th table
[2] = tested on: ATCC 29212 E. faecalis; assay: MIC against ATCC 29212 E. faecalis
[3] = tested on: S. pneumoniae; assay: MIC against S. pneumoniae strain panel; details: Streptococcus pneumoniae
[4] = tested on: Group A Strep; assay: MIC against Group A Strep strain panel
[5] = tested on: Group B Strep; assay: MIC against Group B Strep strain panel
[6] = tested on: E. coli; assay: MIC against E. coli strains

Measured: MIC

CN[C@H](CC(C)C)C(=O)N[C@H]1C(=O)N[C@@H](CC(N)=O)C(=O)N[C@H]2C(=O)N[C@H]3C(=O)N[C@H](C(=O)N[C@H](C(=O)O)c4cc(O)cc(O)c4-c4cc3ccc4O)[C@H](O)c3ccc(c(Cl)c3)Oc3cc2cc(c3O[C@@H]2O[C@H](CO)[C@@H](O)[C@H](O)[C@H]2O[C@H]2C[C@](C)(N)[C@H](O)[C@H](C)O2)Oc2ccc(cc2Cl)[C@H]1O [Vancomycin, vancomycin, reference compound]
> 64 µg/mL: [6]; Escherichia coli | [6]; Escherichia coli, ATCC25922
0.5 µg/mL: [1]; VGP16-100 MSSA | [1]; VGP16-116 MSSA | [1]; VGP16-117 MSSA | [3]; CT4-3048 S. pneumoniae, the 7th table | [3]; CT5-8032 S. pneumoniae, the 7th table | [3]; CT6-0670 S. pneumoniae, the 7th table | [3]; MD77773 S. pneumoniae, CA-MHB w/5% LHB, the 4th table | [5]; 2008-57 Group B Strep, the 9th table | [5]; 2008-70 Group B Strep, the 9th table | [5]; 2008-87 Group B Strep, CA-MHB w/5% LHB, the 4th table | [5]; 2008-115 Group B Strep, the 9th table | [5]; 2009-20 Group B Strep, the 9th table | [5]; 2009-40 Group B Strep, the 9th table | [5]; 2009-43 Group B Strep, the 9th table | [5]; 2009-51 Group B Strep, the 9th table | [5]; 2009-57 Group B Strep, the 9th table | [5]; 2009-59 Group B Strep, the 9th table | [5]; 2009-60 Group B Strep, the 9th table | [5]; 2009-61 Group B Strep, CA-MHB w/5% LHB, the 4th table | [5]; 2009-62 Group B Strep, CA-MHB w/5% LHB, the 4th table | [5]; J4183 Group B Strep, the 9th table | [5]; J4185 Group B Strep, the 9th table | [5]; J4186 Group B Strep, the 9th table | [5]; J4222 Group B Strep, the 9th table
≤ 0.125 µg/mL: [3]; ATCC49619, ATCC 49619 S. pneumoniae, the 7th table
2 µg/mL: [2]; ATCC 29212 E. faecalis, the 6th table | [2]; Enterococcus faecalis, ATCC29212
1 µg/mL: [1]; VGP16-99 MSSA | [1]; VGP16-101 MSSA
0.25 µg/mL: [3]; ATCC49619, ATCC 49619 S. pneumoniae, CA-MHB w/5% LHB, the 4th table | [3]; CO314937 S. pneumoniae, CA-MHB w/5% LHB, the 4th table | [3]; CT3-5008 S. pneumoniae, the 7th table | [3]; CT3-5803 S. pneumoniae, the 7th table | [3]; CT3-8501 S. pneumoniae, the 7th table | [3]; CT4-9046 S. pneumoniae, the 7th table | [3]; CT4-9693 S. pneumoniae, the 7th table | [3]; CT5-6541 S. pneumoniae, the 7th table | [3]; CT5-9124 S. pneumoniae, the 7th table | [3]; CT6-7691 S. pneumoniae, the 7th table | [3]; CT0200-2241 S. pneumoniae, the 7th table | [3]; CT0200-2730 S. pneumoniae, the 7th table | [4] | [4]; 2007-11 Group A Strep, the 8th table | [4]; 2007-28 Group A Strep, the 8th table | [4]; 2007-49 Group A Strep, the 8th table | [4]; 2007-73 Group A Strep, the 8th table | [4]; 2007-107 Group A Strep, the 8th table | [4]; 2007-1101 Group A Strep, the 8th table | [4]; 2008-06 Group A Strep, the 8th table | [4]; 2008-45 Group A Strep, the 8th table | [4]; 2008-818 Group A Strep, CA-MHB w/5% LHB, the 4th table | [4]; 2008-1565 Group A Strep, the 8th table | [4]; 2008-1692 Group A Strep, the 8th table | [4]; 2009-8 Group A Strep, the 8th table | [4]; 2009-37 Group A Strep, CA-MHB w/5% LHB, the 4th table | [4]; 2009-106 Group A Strep, the 8th table | [4]; 2009-109 Group A Strep, the 8th table | [4]; 2009-114 Group A Strep, the 8th table | [4]; 2009-136 Group A Strep, the 8th table | [5]; J4182 Group B Strep, the 9th table
>64 µg/mL: [6]; AR-137 E. coli, the 4th table
